Measurements: PubChem BioAssay AID1259321 (Sanford-Burnham Center for Chemical Genomics, 2017)
Activity calls are given as the source filed them.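 Rule for the calls: active = half-maximal concentration for changing protein binding to DNA, from the fitted dose curve, below 10 micromolar; inactive = the rest.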

target: Nuclear receptor subfamily 1 group D member 1 (Homo sapiens) (UniProt P20393); test: Rev-erbα–DNA interaction modulators – biochemical, FITC-DNA, fluorescence polarization, dose response (AID 1259321); details: Rev-erb alpha-FITC-DNA binding
Sequence (P20393 whole entry, looked up): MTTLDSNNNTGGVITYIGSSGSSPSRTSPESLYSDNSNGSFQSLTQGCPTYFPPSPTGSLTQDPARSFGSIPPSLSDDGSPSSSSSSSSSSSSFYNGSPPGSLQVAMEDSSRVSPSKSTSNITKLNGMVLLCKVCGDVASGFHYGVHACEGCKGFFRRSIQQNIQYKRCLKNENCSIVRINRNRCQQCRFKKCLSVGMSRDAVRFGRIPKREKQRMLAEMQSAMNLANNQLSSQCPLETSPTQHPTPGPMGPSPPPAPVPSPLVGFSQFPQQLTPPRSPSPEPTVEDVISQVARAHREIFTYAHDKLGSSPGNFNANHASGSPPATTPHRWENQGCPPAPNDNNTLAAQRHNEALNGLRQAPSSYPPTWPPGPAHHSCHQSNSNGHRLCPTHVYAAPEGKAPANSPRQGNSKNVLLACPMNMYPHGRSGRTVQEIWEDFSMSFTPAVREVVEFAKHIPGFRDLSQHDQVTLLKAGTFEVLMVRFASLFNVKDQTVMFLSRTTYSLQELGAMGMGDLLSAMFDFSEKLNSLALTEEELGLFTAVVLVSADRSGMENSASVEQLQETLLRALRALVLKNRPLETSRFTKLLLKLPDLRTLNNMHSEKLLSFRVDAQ

IC50 | SMILES
5.15 µM | CCOc1ccc(NC(=O)CCSc2ccc3ccccc3n2)cc1
> 40 µM (inactive) | CCOC(=O)c1cccc2c(=O)c(C(=O)c3ccc(Cl)cc3)c(C(=O)OC)[nH]c12
> 40 µM (inactive) | CCCNC(=O)Nc1ccc2c(c1)C(=O)N(C)[C@H]1CC[C@H](CC(=O)NCC3CCCCC3)O[C@@H]1CO2
4.17 µM | Cc1cc(C)c2nc(SCC(=O)Nc3cc(C)on3)c(C#N)cc2c1
8.29 µM | CC1CCN(S(=O)(=O)c2ccc3nc(N4CCN(c5ccccc5)CC4)ccc3c2)CC1
1.31 µM | N#Cc1c(N)nc(SCC(=O)NCCc2ccccc2)c(C#N)c1-c1cccs1
9.38 µM | Cc1nc(SCc2nc3ccccc3[nH]2)c2oc3cc(Br)ccc3c2n1
4.7 µM | Cc1ccccc1OCC(=O)Nc1cccc2nsnc12
3.88 µM | CC(C)(C)c1ccc(C(=O)c2c[nH]c(C(=O)NCc3cccs3)c2)cc1
7.32 µM | Cc1cc(C)c2cc(C#N)c(SCC(=O)Nc3cc(C)on3)nc2c1
4.49 µM | CCOc1ccccc1NC(=O)CSC1=C(C#N)C(c2ccco2)C(C(=O)Nc2nc3ccccc3s2)=C(C)N1 (stereo not given)
8.26 µM | COc1ccc(-n2ncc3c(N4CCc5ccccc54)ncnc32)cc1
3.24 µM | COc1ccc(OC)c(-c2csc(NC(=O)c3ccc4c(c3)OCO4)n2)c1
inactive | CC(=O)c1ccc(Nc2ncnc3ccc(Br)cc23)cc1
1.04 µM | Cc1cc(=O)oc2cc(OCC3CC(c4ccc(Br)cc4)=NO3)ccc12 (stereo not given)
2.63 µM | O=C(NCc1ccccn1)c1ccc(Cn2c(=S)[nH]c3ccc(Br)cc3c2=O)cc1
inactive | COc1ccc(-n2c(SCC(=O)Nc3cc(C)on3)nc3c([nH]c4ccccc43)c2=O)cc1
3.58 µM | COc1ccc(-c2cc(-c3ccccc3)c(C#N)c(SCC(=O)Nc3ncc(C)s3)n2)cc1
4.52 µM | CCN(CC(=O)NCc1ccc(Cl)cc1)C(=O)c1ccc2cc(OC)ccc2c1
> 40 µM (inactive) | CCc1cc2ccc(OC)cc2nc1SCC(=O)Nc1cc(C)on1
> 40 µM (inactive) | O=C(CCCn1c(=S)[nH]c2cc3c(cc2c1=O)OCO3)NCc1cccc(Cl)c1
7.24 µM | CCCCCC[n+]1ccccc1/C=C/c1ccc(N(C)C)cc1
0.838 µM | O=S(=O)(c1ccc2nc(N3CCN(c4ccccc4F)CC3)ccc2c1)N1CCCCC1
inactive | COc1ccc(C(=O)Nc2nnc(Cc3cccs3)s2)cc1OC
3.26 µM | O=C(CN1CCCCC1)Nc1c2c(nc3ccccc13)N(c1ccccc1)CC2
3.31 µM | Cc1ccc2nc(N3CCN(S(=O)(=O)c4ccc(C)c(Cl)c4)CC3)c(C#N)cc2c1
inactive | O=C(Cn1cc(C(F)(F)F)cc(Cl)c1=O)NCc1ccc(Cl)cc1Cl
inactive | O=C(N=c1ccn(-c2nc3ccccc3nc2NS(=O)(=O)c2ccccc2)cc1)c1cccs1
5.63 µM | CN(CCC#N)c1ccc(/C=C(\C#N)c2ccccn2)cc1
inactive | COc1cc(C(=O)Nc2nc(-c3cc(C)ccc3C)c(C)s2)ccc1OCC(=O)Nc1ccc(F)cc1
